# Values of other authors, collected in patent publication US10610595B2, “Stabilized pharmaceutical formulations of insulin analogues and/or insulin derivatives” (SANOFI, priority 2014, dated 2020).
# Test system: blood glucose level
# Details: Lill, Pharmazie in unserer Zeit 2001
row,Substance,amount corresponding to 1 U
1,human insulin,approximately 35 μg

# Same assay, conditions: product information
row,Substance,amount corresponding to 100 U
1,insulin aspart,3.5 mg
2,insulin detemir [insulin determir],14.2 mg
3,insulin glargine,3.64 mg
4,insulin glulisine,3.49 mg
5,insulin lispro,3.5 mg
